Entries after “also recorded” stand apart in the source; their conditions may differ.
Key:
Type in all cases: cell-based, human
[1] = test system: HepG2 cells; test: Cytotoxicity screening in HepG2 cells, SRB assay; conditions: HepG2, 48 hour
Procedure: In an embodiment, and as an example, the cytotoxicity of two AntiOxCINs (AntiOxCIN4 and AntiOxCIN6) was assessed using monolayer cultures of human hepatocytes from hepatocellular carcinoma (HepG2) and SRB method (FIG. 8A). […] Remarkably, at concentrations higher than 2.5 μM AntiOxCIN6 inhibited cell proliferation, while at concentrations higher than 100 μM AntiOxCIN4 stimulated cell proliferation.
(§1) In an embodiment, the cytotoxicity profile of AntiOxCIN4 and AntiOxCIN6 was evaluated in human hepatocellular carcinoma HepG2 cells. Human hepatocellular carcinoma HepG2 cells were cultured in high-glucose medium composed by Dulbecco's modified Eagle's medium (DMEM; D5648) supplemented with sodium pyruvate (0.11 g/L), sodium bicarbonate (1.8 g/L) and 10% fetal bovine serum (FBS) and 1% of antibiotic penicillin-streptomycin 100× solution. Cells were maintained at 37° C. in a humidified incubator with 5% CO2. HepG2 cells were seeded at density of 4×10^4 cells/mL and grown for 24 hours before treatment.
In an embodiment the cytotoxicity screening was performed as follows: cells were placed on 48-well plate (2×10^4 cells/500 μL) and then were incubated during 48 hour with AntiOxCIN4 and AntiOxCIN6 concentrations ranging 25 μM to 500 μM or 0.5 μM to 25 μM, respectively. After incubation, sulforhodamine B (SRB) assay was used for cell density determination based on the measurement of cellular protein content. Briefly, after incubation, the medium was removed and wells rinsed with PBS (1×). Cells were fixed by adding 1% acetic acid in 100% methanol for at least 2 hours at −20° C. Later, the fixation solution was discarded and the plates were dried in an oven at 37° C. […] Finally, 200 μl of each supernatant was transferred in 96-well plates and optical density was measured at 540 nm. Data are means±SEM of four independent experiments and the results are expressed as percentage of control (control=100%), which represents the cell density without any treatment in the respective time point.

[2] = test system: HepG2 cells; test: Cellular antioxidant screening in HepG2 cells (FeSO4 or H2O2), SRB assay; conditions: pre-incubated 1 hour, AntiOxCIN4 100 μM, AntiOxCIN6 2.5 μM; for prevention of iron-induced HepG2 cytotoxicity (cell proliferation): 250 μM FeSO4 48 h; for prevention of hydrogen peroxide-induced HepG2 cytotoxicity (cell proliferation): 250 μM H2O2 48 h
Procedure: In an embodiment, as an example, the antioxidant cellular outline of AntiOxCIN4 and AntiOxCIN6 was assessed using monolayer cultures of human hepatocytes from hepatocellular carcinoma (HepG2) and two different oxidative stressors (250 μM FeSO4 or 250 μM H2O2) (FIG. 8B). […] The higher efficacy of AntiOxCIN4 is in agreement with the data attained from TAC assays (Table 1) and RLM assays (FIG. 4).
as §1
In an embodiment, the cellular antioxidant screening was performed as follows: cells were placed on 48-well plate (2×10^4 cells/500 μL) and pre-incubated with non-toxic concentrations of AntiOxCIN4 (100 μM) or AntiOxCIN6 (2.5 μM) for 1 hour. After the incubation time, cells were exposed to oxidative stress conditions by the addition of 250 μM FeSO4 or 250 μM H2O2 for 48 hours. At the end of incubation time, SRB assay was used for cell density determination as previously described. Data are means±SEM of four independent experiments. The results are expressed as percentage of control (control=100%), which represents the cell density without any treatment in the respective time point.

[3] = test system: HepG2 cells; test: Morphological alterations in HepG2 cells, vital epifluorescence microscopy (TMRM, Hoechst 33342); conditions: HepG2, 48 h; AntiOxCIN4 100 μM, AntiOxCIN6 2.5 μM, FIG. 8C; methanesulfonate
Procedure: In an embodiment, as an example, the morphological changes in mitochondrial network and nuclei chromatin condensation of AntiOxCIN4 and AntiOxCIN6 have been determined. HepG2 cells were treated with AntiOxCINs for 48 h and then incubated with the mitochondrialΔΨ-dependent fluorescent probes TMRM and DNA dye Hoechst 33342.
In an embodiment, the detection of morphological alterations, including chromatin condensation and mitochondrial polarization and distribution by vital epifluorescence microscopy was performed as follows: cells were placed in 6-well plates with a glass coverslip per well (8×10^4 cells/2 mL) and then treated with non-toxic concentrations of AntiOxCIN4 or AntiOxCIN6 for 48 hours. Thirty minutes prior the end of the incubation time, the mitochondrial network was stained with TMRM (100 nM) while nuclei were stained with Hoechst 33342 (1 μg/mL), to detect apoptotic chromatin condensation, in HBSS (NaCl 137 mM, KCl 5.4 mM, NaHCO3 4.2 mM, Na2HPO4 0.3 mM, KH2PO4 0.4 mM, CaCl2 1.3 mM, MgCl2 0.5 mM, MgSO4 0.6 mM, and D-glucose 5.6 mM, pH 7.4) at 37° C. under dark conditions. Glass coverslips were removed from the wells and placed on glass slides with a drop of mounting medium. The cell images were acquired using a Zeiss LSM 510Meta microscope and analysed with ImageJ software 1.49v. […]

Structure (SMILES)	concentration above which cell proliferation was stimulated ([1]; FIG. 8A)	prevention of iron-induced HepG2 cytotoxicity (cell proliferation) [2]	prevention of hydrogen peroxide-induced HepG2 cytotoxicity (cell proliferation) [2]	nuclear morphology and mitochondrial polarization [3]	toxicity toward HepG2 cells (comparison) [1]	concentration above which cell proliferation was inhibited ([1]; FIG. 8A)
CS(=O)(=O)[O-].O=C(/C=C/c1cc(O)c(O)c(O)c1)NCCCCCC[P+](c1ccccc1)(c1ccccc1)c1ccccc1 [AntiOxCIN4, (E)-(6-(3-(3,4,5-trihydroxyphenyl)prop-2-enamido)hexyl)triphenylphosphonium methanesulfonate]	higher than 100 μM	significantly prevented	significantly prevented	did not induce nuclear morphological changes neither mitochondrial depolarization; also recorded: did not disturb the normal nuclear morphology and mitochondrial polarization	–	–
CS(=O)(=O)[O-].O=C(/C=C/c1ccc(O)c(O)c1)NCCCCCCCCCC[P+](c1ccccc1)(c1ccccc1)c1ccccc1 [AntiOxCIN6, (E)-(10-(3-(3,4-dihydroxyphenyl)acrylamido)decyl)triphenylphosphonium methanesulfonate]	–	significantly prevented	significantly prevented	did not induce nuclear morphological changes neither mitochondrial depolarization; also recorded: did not disturb the normal nuclear morphology and mitochondrial polarization	higher toxicity than AntiOxCIN4	higher than 2.5 μM

— patent publication US10913757B2, “Hydroxycinnamic derivatives, methods and uses thereof” (UNIVERSIDADE DO PORTO, priority 2016, dated 2021)
